From patent publication US20230130823A1, “PROCESS FOR THE PRODUCTION OF ANTITUMOUR PHARMACEUTICAL COMPOSITIONS USING PUSH-PULL BUTADIENES, COMPOUNDS AND USES THEREOF” (ANHANGUERA EDUCACIONAL PARTICIPAÇÕES S/A, priority 2019, published 2023)
≈ marks a conversion by molar mass, not a printed value. Where “and” joins values, the source holds several entries; their conditions need not be identical. Identical values can stand only once.

How the values were obtained:
[1] = test system: murine melanoma cells B16F10; assay: MTT cytotoxicity in B16F10 melanoma cells; type: cell-based; conditions: for IC50: Mus musculus, B16-F10, B16F10 melanoma, 24 hours of culture, MTT, read-out: CI50% (the source's name)
Protocol: The tumor line of murine melanoma B16F10 was donated by the Ludwig-Switzerland Institute. Adherent cell suspensions of B16F10 cells were obtained for all experimental procedures by treating culture flasks with trypsin 0.2% for 5 minutes and inactivated with 10% fetal bovine serum. The detached cells were centrifuged twice, resuspended in supplemented RPMI-1640 medium. The count was performed in Malassez chamber, and the cell concentration was adjusted in 5×10^5 cells/ml, in RPMI-1640 culture medium supplemented with 10% fetal bovine serum and 7 ug polymyxin-B (Sigma Chemical Company, St Louis Mo.-USA).
Cell viability was determined by the Trypan Blue exclusion test, being greater than 95% of viable cells. The cells were grown in plates with 96 well plate flat bottoms (Corning), at a concentration of 2×10^5 cells, maintained for 24 hours in a CO2 oven at 37° C. After this period, the plates were centrifuged for 5 minutes, at 2000 rpm at 4° C., the supernatant discarded and added different concentrations of the compounds, diluted in RPMI-1640 culture medium, supplemented and increased by 7 μg of Polymyxin-B (Sigma Chemical Company). After treatment with the various diluted compounds in complete culture medium, the cells were incubated with 0.5 mg/mL of MTT reactive.
The cell viability test was performed to verify the effect of the various compounds on the various concentrations previously established: on the lines of tumor cells B16F10 and normal human fibroblasts. The MTT method consists of a cell viability test that measures the activity of mitochondrial dehydrogenase. MTT is a colorimetric method based on the capacity of living cells to reduce salt 3-(4,5-di-methylazole-2-IL)-2,5-diphenyl tetrazolium bromide in the formazan product (Mosmann, 1983). After the cells plating (concentration of 1×10^4 per well of the culture plate) in RPMI-1640 medium and 10% SFB medium, they were maintained at 37° C. for periods of 24, 48, 72 and 96 hours. Four hours before the set time was completed, MTT 20 μL (Sigma) was added (final concentration of […]). The plates were kept in the oven for the remaining four hours. After the stipulated time, 180 μL of the supernatant were removed from each well and then added 150 μL of dimethyl sulfoxide (Sigma) homogenizing well for the complete dissolution of the salt crystals formed by the mitochondrial metabolism resulting in a staining.
The 96-well plate was read by the spectrophotometer (Spectra MAX-190) using the wavelength of 570 nm. The results were analyzed by absorbance of each well. The percentage of viability was obtained using the following formula: [(Absorbance of treated cells/Absorbance of untreated cells)×100]. The experiments were carried out in quadruplicate.
The samples of the compounds obtained by synthesis chemistry were diluted in DMSO solution at the final concentration of 10%.

[2] = test system: lines of human carcinoma tested; assay: In vitro cytotoxicity against the panel of human carcinoma lines; conditions: tumor cell lines of human carcinoma tested
[3] = test system: 4T1 (murine mammary carcinoma); assay: Cytotoxicity, 4T1 cells; type: cell-based; conditions: Mus musculus, read-out: CI50% tumor cells
[4] = test system: MCF-7 (human mammary adenocarcinoma); assay: Cytotoxicity, MCF-7 cells; type: cell-based; conditions: MCF7, read-out: CI50% tumor cells
[5] = test system: SCC9 (squamous-cell carcinoma of the oral cavity); assay: Cytotoxicity, SCC9 cells; type: cell-based; conditions: Homo sapiens, SCC-9, read-out: CI50% tumor cells
[6] = test system: HUVEC (Normal human endothelial cell); assay: Cytotoxicity, HUVEC normal cells
CaCo2 = assay: In vitro cytotoxicity, CaCo2 colon line; type: cell-based; conditions: Homo sapiens, Caco-2; CaCo2, colon; read-out: IC50
HT-29 = assay: In vitro cytotoxicity, HT-29 colon line; type: cell-based; conditions: Homo sapiens; HT-29, colon; read-out: IC50
Colo205 [7] = assay: In vitro cytotoxicity, Colo205 colon line; type: cell-based; conditions: Homo sapiens, COLO 205; Colo205, colon; read-out: IC50
SW620 = assay: In vitro cytotoxicity, SW620 colon line; type: cell-based; conditions: Homo sapiens, SW-620; SW620, colon; read-out: IC50
CRO2B = assay: In vitro cytotoxicity, CRO2B carcinoid line; type: cell-based; conditions: Homo sapiens, carcinoid, read-out: IC50
MIAP2 = assay: In vitro cytotoxicity, MIAP2 pancreas line; type: cell-based; conditions: Homo sapiens; MIAP2, pancreas; read-out: IC50
BxPC3 = assay: In vitro cytotoxicity, BxPC3 pancreas line; type: cell-based; conditions: Homo sapiens, BXPC-3; BxPC3, pancreas; read-out: IC50
PANC1 = assay: In vitro cytotoxicity, PANC1 pancreas line; type: cell-based; conditions: Homo sapiens, PANC-1; PANC1, pancreas; read-out: IC50
tumor cells line Colo205 = assay: Colo205 cell count; type: cell-based; conditions: compared to cells treated with culture medium only
Protocol: The compounds were tested for their ability to reduce the number of cells in the tumor, compared to cells treated with culture medium only. In Table 4, the results obtained are shown.

Colo205 [8] = assay: Determination of apoptotic cells (subG1), Colo205, flow cytometry; type: cell-based; conditions: sub-diploid DNA content
Description: Determination of Apoptotic Cells (subG1)-Colo205
In this experiment, the proportion of apoptotic cells was identified, that is, cells showing DNA content below normal (sub-diploid) in flow cytometry testing.

Colo205 [9] = assay: Analysis of the cell cycle phases, Colo205; type: cell-based; conditions: for Cell cycle phase (%) G2M: G2/M phase
Description: The compounds of this family were also studied for the distribution of the population of tumor cells in the different phases of the cell cycle: quiescent cells, non-proliferating (G1/G0 phase), which present DNA/RNA synthesis capacity (S phase) and cell division cells (G2/M phase).

[10] = test system: FN-1 (Normal human fibroblast); assay: Cytotoxicity, normal human fibroblasts; type: cell-based; conditions: fibroblasts
Protocol: Fragments of cutaneous biopsies from patients treated by the Dermatology Service of the Clinic Hospital of the Medicine School of USP were removed for routine diagnostic procedures and part of the surgical flap edge immersed in Eagle culture medium modified by Dulbecco's (DMEM, Sigma Chemical Co., St. Louis, Mo., USA) added of 10% fetal bovine serum (Cultilab Ltda., Campinas-SP), […] and 50 ng/ml amphotericin B at 4 C and kept at 4 C for a maximum of 16 hours.
The fragments were washed three times in the same solution, cut into fragments of approximately 1 mm^3 and transferred to 25 cm^2 culture flasks, kept at 37 C, humid atmosphere containing 5% CO2. Cell growth monitored daily, photo documented in inversion microscopy and culture medium exchanged every 2 or 3 days, according to cell metabolism.
After 7 days, the first change in the culture medium of the flasks was performed once cell growth started, the culture medium was renewed every three days. Plastic flasks were used for cultivation of 25 cm^2 of cultivated area, where more 3 ml of DME medium containing 10% fetal bovine serum and 1% of antibiotic-antimycotic solution will be added.
The cell viability test was performed to verify the effect of the various compounds on the various concentrations previously established: on the lines of tumor cells B16F10 and normal human fibroblasts. The MTT method consists of a cell viability test that measures the activity of mitochondrial dehydrogenase. MTT is a colorimetric method based on the capacity of living cells to reduce salt 3-(4,5-di-methylazole-2-IL)-2,5-diphenyl tetrazolium bromide in the formazan product (Mosmann, 1983). […]
The 96-well plate was read by the spectrophotometer (Spectra MAX-190) using the wavelength of 570 nm. The results were analyzed by absorbance of each well. The percentage of viability was obtained using the following formula: [(Absorbance of treated cells/Absorbance of untreated cells)×100]. […]

SMILES	IC50 [1]	cytotoxic activity (in words) [2]	IC50 (CaCo2) [µM]	IC50 (HT-29) [µM]	IC50 (Colo205 [7]) [µM]	IC50 (SW620) [µM]	IC50 (CRO2B) [µM]	IC50 (MIAP2) [µM]	IC50 (BxPC3) [µM]	IC50 (PANC1) [µM]	Relative number of cells (% ± standard deviation) (tumor cells line Colo205) [%]	Percentage of cells (apoptotic, subG1) (Colo205 [8]) [%]	Cell cycle phase (%) G1/G0 (Colo205 [9]) [%]	Cell cycle phase (%) G2M (Colo205 [9]) [%]	Cell cycle phase (%) S (Colo205 [9]) [%]	further results
O=C(Oc1ccccc1/C(Cl)=C/C=C/[N+](=O)[O-])c1ccccc1 [Compound 7, 2-(1-chloro-4-nitro-buta-1,3-dienyl)phenyl Benzoate]	3.27 µg/mL and 9.93 µM	little antitumor activity	–	–	–	–	–	–	–	–	–	–	–	–	–	activity relative to compound 6 ([1]; B16F10, compared with compound 6): almost ten times more active
CC(=O)c1ccccc1C(=O)Oc1ccccc1 [Compound 4, 2-Acetyl Benzoate of Phenyl]	–	inactive	–	–	–	–	–	–	–	–	–	–	–	–	–	–
N#CC(C#N)=C/C=C(\Cl)c1ccc(OC(=O)c2ccccc2)cc1 [Compound 14, 4-(1-chloro-4,4-dicyano-buta-1,3-dienyl)phenyl Benzoate]	168 µg/mL (≈ 503 µM)	–	–	–	–	–	–	–	–	–	–	–	–	–	–	–
COc1ccc(C(=O)/C(C#N)=C/C=C(\Cl)c2ccc(I)cc2)cc1OC [Compound 21, 5-chloro-2-(3,4-dimethoxy-benzoyl)-5-(4-iodine-phenyl)-penta-2,4-dienonitrile]	–	–	–	–	–	–	–	–	–	–	–	–	–	–	–	IC50 [3]: 6.44 µM; IC50 [4]: 0.293 µM; IC50 [5]: 0.858 µM; CI50% Normal cells [6]: 16.4 µM
CC(C)=CCOc1ccc(C(C)=C(C#N)C#N)cc1 [Compound 2]	–	exhibited a better cytotoxic activity	163	92	149	134	149	155	160	177	12.7 ± 0.339	35.7 ± 1.485	90.0 ± 0.91	0.8 ± 0.42	9.15 ± 0.49	–
CC(=O)c1ccc(OCC=C(C)C)cc1 [Compound 1, 4-(3-methylbut-2-enyl-oxyi)acetophenone]	–	showed no cytotoxic activity	759	455	1030	980	666	823	725	759	70.2 ± 0.339	5.2 ± 0.566	48.0 ± 2.54	5.0 ± 2.26	47.0 ± 0.28	–
COc1cc(/C=C/C(=O)/C=C/C=C(Cl)/C=C/c2ccc(OC)c(OC)c2)ccc1O [Compound 29, (1E,4E,6Z,8E)-7-chloro-1-(4-hydroxy-3-methoxyphenyl)-9-(3,4-dimethoxyphenyl)nona-1,4,6,8-tetraen-3-ona]	–	–	–	–	–	–	–	–	–	–	–	–	–	–	–	IC50 [3]: 8.27 µM; IC50 [4]: 0.701 µM; IC50 [5]: 9.22 µM
O=CC=C(Cl)c1ccc(OC(=O)c2ccccc2)cc1OC(=O)c1ccccc1 [Compound 27, 3-Chloro-3-(2,4-benzoyloxy-phenyl)propenal]	–	–	–	–	–	–	–	–	–	–	32.3 ± 1.017	18.0 ± 0.354	54.2 ± 0.35	12.4 ± 0.63	33.4 ± 0.21	–
CCSC(=CC(=C(C#N)C#N)c1ccc(OCC=C(C)C)cc1)SCC [Compound 3]	–	potent cytotoxic activity	8.07	3.9	14.3	11.7	6.51	3.9	24.2	50	–	–	–	–	–	–
O=C(Oc1ccc(/C(Cl)=C/C=C/[N+](=O)[O-])cc1)c1ccccc1 [Compound 16, 4-(1-chloro-4-nitro-buta-1,3-dienyl)phenyl Benzoate]	34.9 µg/mL and 106 µM	–	–	–	–	–	–	–	–	–	–	–	–	–	–	–
N#CC(C#N)=C/C=C(\Cl)c1ccccc1OC(=O)c1ccccc1 [Compound 6, 2-(1-chloro-4,4-dicyano-buta-1,3-dienyl)phenyl Benzoate]	30.6 µg/mL and 91.6 µM	potent in vitro activity	9.25	4.47	16.4	13.4	7.46	4.47	27.7	57.3	12.7 ± 0.339	41.8 ± 0.141	64.3 ± 1.69	16.0 ± 0.28	19.7 ± 1.48	activity against fibroblasts (in words) [10]: significant activity
CC(=O)C(=C/C=C(\Cl)c1ccc(I)cc1)C(C)=O [Compound 18, 3-acetyl-6-chloro-6-(4-iodophenyl)-hexa-3,5-diene-2-ona]	–	–	–	–	–	–	–	–	–	–	–	–	–	–	–	times more active ([1]; compared with the acetylacetone-derived benzoate isomers): ~7 times; IC50 [3]: 3.71 µM; IC50 [4]: 0.666 µM; IC50 [5]: 10.9 µM
